The assay has as its system 855422-203-R-J1-PDC complex spheroid growth. Kind of assay: Anticancer human tumor 855422-203-R-J1-PDC patient-derived bladder carcinoma cell line growth inhibition [AhR]. The following applies: for viability, T/C: stronger effect = lower value. The method in brief:
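Agents were dosed in half-log steps down from roughly clinical Cmax, or from 10 microM where Cmax was unknown, alone and with AhR antagonists. Read-out: percent test/control growth of tumor spheroids containing HUVEC and MSC stromal cells.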

The mark [1] stands for this setting: curve of first compound, second compound 0.1 µM.
The mark [2] stands for this setting: curve of first compound, second compound 0.316 µM.
The mark [3] stands for this setting: curve of first compound, second compound 1 µM.
[4] abbreviates: curve of first compound, second compound 3.16 µM.
Where [5] appears, read: curve of first compound, second compound 10 µM.
Where [6] appears, read: second compound 0.1 µM, first compound 0.0316 µM.
The mark [7] stands for this setting: second compound 0.1 µM, first compound 0.1 µM.
Where [8] appears, read: second compound 0.1 µM, first compound 0.316 µM.
The mark [9] stands for this setting: second compound 0.1 µM, first compound 1 µM.
[10] abbreviates: second compound 0.1 µM, first compound 3.16 µM.
Where [11] appears, read: second compound 0.1 µM, first compound 10 µM.
[12] abbreviates: second compound 0.316 µM, first compound 0.0316 µM.
[13] abbreviates: second compound 0.316 µM, first compound 0.1 µM.
The mark [14] stands for this setting: second compound 0.316 µM, first compound 0.316 µM.
The mark [15] stands for this setting: second compound 0.316 µM, first compound 1 µM.
Where [16] appears, read: second compound 0.316 µM, first compound 3.16 µM.
Where [17] appears, read: second compound 0.316 µM, first compound 10 µM.
The mark [18] stands for this setting: second compound 1 µM, first compound 0.0316 µM.
The mark [19] stands for this setting: second compound 1 µM, first compound 0.1 µM.
[20] abbreviates: second compound 1 µM, first compound 0.316 µM.
The mark [21] stands for this setting: second compound 1 µM, first compound 1 µM.
The mark [22] stands for this setting: second compound 1 µM, first compound 3.16 µM.
Where [23] appears, read: second compound 1 µM, first compound 10 µM.
[24] abbreviates: second compound 3.16 µM, first compound 0.0316 µM.
[25] abbreviates: second compound 3.16 µM, first compound 0.1 µM.
The mark [26] stands for this setting: second compound 3.16 µM, first compound 0.316 µM.
Setting [27] is: second compound 3.16 µM, first compound 1 µM.
[28] abbreviates: second compound 3.16 µM, first compound 3.16 µM.
Setting [29] is: second compound 3.16 µM, first compound 10 µM.
Where [30] appears, read: second compound 10 µM, first compound 0.0316 µM.
The mark [31] stands for this setting: second compound 10 µM, first compound 0.1 µM.
Setting [32] is: second compound 10 µM, first compound 0.316 µM.
[33] abbreviates: second compound 10 µM, first compound 1 µM.
Setting [34] is: second compound 10 µM, first compound 3.16 µM.
[35] abbreviates: second compound 10 µM, first compound 10 µM.

SMILES strings stand for the structures. Where “and” joins values, the source holds several entries; their conditions need not be identical. Identical values can stand only once.
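Further: spheroids exposed to agents for seven days before readout.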
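Wherever viability, T/C is given: percent of DMSO vehicle control luminescence viability.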

Broadly, the viability, T/C is the ratio of treated to control. Broadly, the IC50 is the concentration that gives 50% inhibition. With `CCc1c2c(nc3ccc(O)cc13)-c1cc3c(c(=O)n1C2)COC(=O)[C@]3(O)CC`, the viability, T/C is 96.8% and 105% and 92.3% (compound 0.000949 µM); 83.7% and 99.2% and 88.8% (compound 0.003 µM); 44.9% and 86.1% and 49.6% (compound 0.00949 µM); 14.9% and 32.5% and 16.6% (compound 0.03 µM); 8.05% and 16.5% and 9.46% (compound 0.0949 µM); 5.61% and 9.17% and 5.63% (compound 0.3 µM). Besides, the IC50 (curve of compound) is 8.17 nM and 20.7 nM and 9.7 nM.

Take `Nc1ccn(C2OC(CO)C(O)C2(F)F)c(=O)n1` (stereo unspecified): the viability, T/C was 73.2% and 108% and 116% (compound 0.0316 µM); 24.6% and 89.1% and 98.4% (compound 0.1 µM); 14.1% and 28.8% and 44% (compound 0.316 µM); 15.1% and 17.2% and 34.1% (compound 1 µM); 11.1% and 14.4% and 27.2% (compound 3.16 µM); 7.1% and 9.36% and 17.2% (compound 10 µM). Moreover, the IC50 (curve of compound) is 55 nM and 212 nM and 290 nM.

Turning to `O=C(C=Cn1cnc(-c2cc(C(F)(F)F)cc(C(F)(F)F)c2)n1)NNc1cnccn1` + Cc1ccccc1N=Nc1ccc(NC(=O)c2ccnn2C)c(C)c1, the IC50 is over 3000 nM under setting [1]; over 3000 nM under setting [2]; over 3000 nM under setting [3]; 706 nM under setting [4]; 726 nM under setting [5]. Further, the viability, T/C by setting is: (second compound 0.1 µM, first compound 0.00949 µM) 108%; (second compound 0.1 µM, first compound 0.03 µM) 113%; (second compound 0.1 µM, first compound 0.0949 µM) 143%; (second compound 0.1 µM, first compound 0.3 µM) 93.1%; (second compound 0.1 µM, first compound 0.949 µM) 53.9%; (second compound 0.1 µM, first compound 3 µM) 50.1%. Besides, the viability, T/C runs as follows: (second compound 0.316 µM, first compound 0.00949 µM) 109%; (second compound 0.316 µM, first compound 0.03 µM) 118%; (second compound 0.316 µM, first compound 0.0949 µM) 151%; (second compound 0.316 µM, first compound 0.3 µM) 83.7%; (second compound 0.316 µM, first compound 0.949 µM) 57.6%; (second compound 0.316 µM, first compound 3 µM) 48%. Further, the viability, T/C (second compound 1 µM, first compound 0.00949 µM) is 109%; the viability, T/C (second compound 1 µM, first compound 0.03 µM) was 136%; the viability, T/C (second compound 1 µM, first compound 0.0949 µM) is 179%; the viability, T/C (second compound 1 µM, first compound 0.3 µM) was 78.5%; the viability, T/C (second compound 1 µM, first compound 0.949 µM) was 54.2%; the viability, T/C (second compound 1 µM, first compound 3 µM) is 48%. Besides, the viability, T/C is 111% (second compound 3.16 µM, first compound 0.00949 µM); 107% (second compound 3.16 µM, first compound 0.03 µM); 154% (second compound 3.16 µM, first compound 0.0949 µM); 69.8% (second compound 3.16 µM, first compound 0.3 µM); 48.5% (second compound 3.16 µM, first compound 0.949 µM); 37.8% (second compound 3.16 µM, first compound 3 µM). Besides, the viability, T/C (second compound 10 µM, first compound 0.00949 µM) was 85.8%; the viability, T/C (second compound 10 µM, first compound 0.03 µM) is 101%; the viability, T/C (second compound 10 µM, first compound 0.0949 µM) was 112%; the viability, T/C (second compound 10 µM, first compound 0.3 µM) was 58.2%; the viability, T/C (second compound 10 µM, first compound 0.949 µM) is 49.8%; the viability, T/C (second compound 10 µM, first compound 3 µM) was 45.4%.

Turning to `CC1(C)CCC(CN2CCN(c3ccc(C(=O)NS(=O)(=O)c4ccc(NCC5CCOCC5)c([N+](=O)[O-])c4)c(Oc4cnc5[nH]ccc5c4)c3)CC2)=C(c2ccc(Cl)cc2)C1`, the viability, T/C runs as follows: (compound 0.0316 µM) 98.4% and 107% and 103%; (compound 0.1 µM) 95.8% and 106% and 98.7%; (compound 0.316 µM) 108% and 103% (2×); (compound 1 µM) 97.6% and 116% and 104%; (compound 3.16 µM) 108% and 118% and 100%; (compound 10 µM) 13.2% and 22.8% and 8.45%. Further, for the setting “curve of compound”, the IC50 is 6190 nM and 6990 nM and 5930 nM.

In the case of `NS(=O)(=O)OCC1CC(n2ccc3c(NC4CCc5ccccc54)ncnc32)CC1O` (stereo unspecified) + CC(CO)NC(=O)c1cc(-c2ccc(Cl)cc2)nn(-c2cnn(C)c2)c1=O, the IC50 by setting is: under setting [1], 855 nM; under setting [2], 795 nM; under setting [3], 699 nM; under setting [4], 524 nM; under setting [5], 470 nM. Also, the viability, T/C was 99.8% under setting [6]; 117% under setting [7]; 93% under setting [8]; 43.2% under setting [9]; 15.3% under setting [10]; 10.1% under setting [11]. Also, the viability, T/C is 90.5% under setting [12]; 109% under setting [13]; 84.4% under setting [14]; 41.5% under setting [15]; 12.4% under setting [16]; 7.98% under setting [17]. Besides, the viability, T/C is 104% under setting [18]; 102% under setting [19]; 85.4% under setting [20]; 34.1% under setting [21]; 11.4% under setting [22]; 9.77% under setting [23]. Also, the viability, T/C is 87% under setting [24]; 97.9% under setting [25]; 61.9% under setting [26]; 31.9% under setting [27]; 9.85% under setting [28]; 8.37% under setting [29]. Also, the viability, T/C is 87.6% under setting [30]; 82.8% under setting [31]; 53.5% under setting [32]; 38.6% under setting [33]; 11.7% under setting [34]; 8.14% under setting [35].

Regarding `COc1cccc2c1C(=O)c1c(O)c3c(c(O)c1C2=O)CC(O)(C(=O)CO)CC3OC1CC(N)C(O)C(C)O1` (stereo unspecified) + Cc1ccccc1N=Nc1ccc(NC(=O)c2ccnn2C)c(C)c1, the concentration for half-maximal inhibition (IC50) is under 31.6 nM under setting [1]; under 31.6 nM under setting [2]; under 31.6 nM under setting [3]; under 31.6 nM under setting [4]; under 31.6 nM under setting [5]. In addition, the viability, T/C was 47% under setting [6]; 32.6% under setting [7]; 7.99% under setting [8]; 2.76% under setting [9]; 2.93% under setting [10]; 5.62% under setting [11]. Besides, the viability, T/C reads like this: under setting [12], 32%; under setting [13], 24.1%; under setting [14], 6.58%; under setting [15], 2.77%; under setting [16], 2.16%; under setting [17], 3.66%. The viability, T/C by setting is: under setting [18], 45.6%; under setting [19], 25.8%; under setting [20], 6.31%; under setting [21], 2.89%; under setting [22], 2.5%; under setting [23], 4.52%. Also, the viability, T/C under setting [24] is 39.9%; the viability, T/C under setting [25] is 26.4%; the viability, T/C under setting [26] is 4.8%; the viability, T/C under setting [27] was 3.4%; the viability, T/C under setting [28] was 1.63%; the viability, T/C under setting [29] is 3.98%. The viability, T/C is 39.6% under setting [30]; 29.7% under setting [31]; 6.61% under setting [32]; 2.6% under setting [33]; 2.02% under setting [34]; 3.27% under setting [35].

These data come from PubChem BioAssay AID1919005 (Molecular Pharmacology Branch, DTP, NCI, 2023).
